Reference: patent publication US12577228B2, “Dihydrocyclopenta-isoquinoline-sulfonamide derivatives compounds” (UCB Biopharma SRL, priority 2019, dated 2026)
Structures can show the parent of a compound that is named as a salt.

What follows are molecules tested against T1, IgE-Tb / soluble IgE receptor FcεRIα with a Y131A mutation (Homo sapiens, UniProt P01854, N146Q/N252Q) (assay: in vitro FRET assay: binding of IgE-Tb to receptor FcεRIα-Y131A-AF488 and its inhibition by compounds). Conditions: 5 nM IgE-Tb, 25 nM FcεRIα-Y131A-AF488, 2 hours at room temperature; read-out: FRET IC50 range.
T1 construct: fused on or other part: Terbium chelate (LanthaScreen amine-reactive) on IgE-Fc; Alexa Fluor 488 hydrazide on the oxidised glycans of sFcεRIα; Both are labels and no part of the key
T1 sequence (P01854 104-427 N146Q/N252Q): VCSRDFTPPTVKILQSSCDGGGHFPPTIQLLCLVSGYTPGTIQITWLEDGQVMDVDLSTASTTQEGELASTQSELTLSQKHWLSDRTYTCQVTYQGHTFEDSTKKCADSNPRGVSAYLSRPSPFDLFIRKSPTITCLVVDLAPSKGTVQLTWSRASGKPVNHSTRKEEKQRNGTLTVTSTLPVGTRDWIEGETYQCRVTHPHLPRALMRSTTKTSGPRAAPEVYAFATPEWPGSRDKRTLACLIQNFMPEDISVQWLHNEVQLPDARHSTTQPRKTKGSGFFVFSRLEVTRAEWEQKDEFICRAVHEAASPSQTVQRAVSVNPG
T1 sequence (P12319 26-201 Y156A partner): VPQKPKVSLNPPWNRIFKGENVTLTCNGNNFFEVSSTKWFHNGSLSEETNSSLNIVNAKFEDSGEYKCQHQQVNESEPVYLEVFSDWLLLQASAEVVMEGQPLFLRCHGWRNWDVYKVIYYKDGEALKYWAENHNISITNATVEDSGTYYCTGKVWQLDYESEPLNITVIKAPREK

| SMILES | IC50 [nM] |
| --- | --- |
| CC(C)(C)OC(=O)c1ccc(N[C@@H]2Cc3cc4cnc(C5CC5)cc4c(S(=O)(=O)NC4CC(F)(F)C4)c3C2)cn1 [Example 85, tert-butyl 5-[[(7R)-3-cyclopropyl-5-[(3,3-difluorocyclobutyl)sulfamoyl]-7,8-dihydro-6H-cyclopenta[g]isoquinolin-7-yl]amino]pyridine-2-carboxylate] | 10 to 50 |
| CC(C)(F)CNS(=O)(=O)c1c2c(cc3cnc(C4CC4)cc13)CC(Nc1cccnc1)C2 (centres unmarked) [Example 86, 3-cyclopropyl-N-(2-fluoro-2-methylpropyl)-7-(pyridin-3-ylamino)-7,8-dihydro-6H-cyclopenta[g]isoquinoline-5-sulfonamide] | 10 to 50 |
| CC(C)(F)CNS(=O)(=O)c1c2c(cc3cnc(C4CC4)cc13)CC(NC(=O)Cc1ccccc1)C2 (centres unmarked) [Example 87, N-[3-cyclopropyl-5-[(2-fluoro-2-methylpropyl)sulfamoyl]-7,8-dihydro-6H-cyclopenta[g]isoquinolin-7-yl]-2-phenylacetamide] | 50 to 100 |
| CC(C)CNS(=O)(=O)c1c2c(cc3cnc(C4CC4)cc13)CC(Nc1ccc(C(=O)O)nc1)C2 (centres unmarked) [Example 88, 5-[[3-cyclopropyl-5-(isobutylsulfamoyl)-7,8-dihydro-6H-cyclopenta[g]isoquinolin-7-yl]amino]pyridine-2-carboxylic acid; hydrochloride] | 50 to 100 |
| O=C(O)c1ccc(NC2Cc3cc4cnc(C5CC5)cc4c(S(=O)(=O)NC4CC(F)(F)C4)c3C2)cn1 (centres unmarked) [Example 89, 5-[[3-cyclopropyl-5-[(3,3-difluorocyclobutyl)sulfamoyl]-7,8-dihydro-6H-cyclopenta[g]isoquinolin-7-yl]amino]pyridine-2-carboxylic acid] | 100 to 2000 |
| CC(C)(F)CNS(=O)(=O)c1c2c(cc3cnc(C4CC4)cc13)C[C@H](n1cnc(C(N)=O)c1N)C2 [Example 90, 5-amino-1-[(7S)-3-cyclopropyl-5-[(2-fluoro-2-methylpropyl)sulfamoyl]-7,8-dihydro-6H-cyclopenta[g]isoquinolin-7-yl]imidazole-4-carboxamide] | 100 to 2000 |
| CC(C)(F)CNS(=O)(=O)c1c2c(cc3cnc(C4CC4)cc13)CN(Cc1cccnc1)C2 [Example 91, 7-cyclopropyl-N-(2-fluoro-2-methyl-propyl)-2-(3-pyridylmethyl)-1,3-dihydropyrrolo[3,4-g]isoquinoline-9-sulfonamide; formic acid] | 100 to 2000 |
| Cc1nnc(-n2ccc(N[C@@H]3Cc4cc5cnc(C6CC6)cc5c(S(=O)(=O)NCC(C)(C)F)c4C3)cc2=O)o1 [Example 92, (7R)-3-cyclopropyl-N-(2-fluoro-2-methylpropyl)-7-[[1-(5-methyl-1,3,4-oxadiazol-2-yl)-2-oxopyridin-4-yl]amino]-7,8-dihydro-6H-cyclopenta[g]isoquinoline-5-sulfonamide] | 10 to 50 |
| CNS(=O)(=O)c1ccc(N[C@@H]2Cc3cc4cnc(C5CC5)cc4c(S(=O)(=O)NCC(C)(C)F)c3C2)cn1 [Example 93, (7R)-3-cyclopropyl-N-(2-fluoro-2-methylpropyl)-7-[[6-(methylsulfamoyl)pyridin-3-yl]amino]-7,8-dihydro-6H-cyclopenta[g]isoquinoline-5-sulfonamide] | 10 to 50 |
| NC(=O)c1ccc(N[C@@H]2Cc3cc4cnc(C5CC5)cc4c(S(=O)(=O)NC4CC(F)(F)C4)c3C2)nn1 [Example 94, 6-[[(7R)-3-cyclopropyl-5-[(3,3-difluorocyclobutyl)sulfamoyl]-7,8-dihydro-6H-cyclopenta[g]isoquinolin-7-yl]amino]pyridazine-3-carboxamide] | 10 to 50 |
| CC(=O)NS(=O)(=O)c1ccc(N[C@@H]2Cc3cc4cnc(C5CC5)cc4c(S(=O)(=O)NCC(C)(C)F)c3C2)cn1 [Example 95, N-[5-[[(7R)-3-cyclopropyl-5-[(2-fluoro-2-methylpropyl)sulfamoyl]-7,8-dihydro-6H-cyclopenta[g]isoquinolin-7-yl]amino]pyridin-2-yl]sulfonylacetamide] | 50 to 100 |
| Cn1ccc(NC2Cc3cc4cnc(C5CC5)cc4c(S(=O)(=O)NCC(C)(C)F)c3C2)cc1=O (centres unmarked) [Example 96, 3-cyclopropyl-N-(2-fluoro-2-methyl-propyl)-7-[(1-methyl-2-oxo-4-pyridyl)amino]-7,8-dihydro-6H-cyclopenta[g]isoquinoline-5-sulfonamide; formate salt] | 10 to 50 |
| Cc1nnc(NC2Cc3cc4cnc(C5CC5)cc4c(S(=O)(=O)NCC(C)(C)F)c3C2)o1 (centres unmarked) [Example 97, 3-cyclopropyl-N-(2-fluoro-2-methylpropyl)-7-[(5-methyl-1,3,4-oxadiazol-2-yl)amino]-7,8-dihydro-6H-cyclopenta[g]isoquinoline-5-sulfonamide] | 100 to 2000 |
| CC(C)(F)CNS(=O)(=O)c1c2c(cc3cnc(C4CC4)cc13)CC(NC1=CC(=O)C1(C)C)C2 (centres unmarked) [Example 98, 3-cyclopropyl-7-[(4,4-dimethyl-3-oxocyclobuten-1-yl)amino]-N-(2-fluoro-2-methylpropyl)-7,8-dihydro-6H-cyclopenta[g]isoquinoline-5-sulfonamide] | 100 to 2000 |
| CC(C)CNS(=O)(=O)N1Cc2cc3cnc(C4CC4)cc3c(S(=O)(=O)NCC(C)(C)F)c2C1 [Example 99, 7-cyclopropyl-9-N-(2-fluoro-2-methylpropyl)-2-N-(2-methylpropyl)-1,3-dihydropyrrolo[3,4-g]isoquinoline-2,9-disulfonamide] | 100 to 2000 |
| CCNC(=O)N1Cc2cc3cnc(C4CC4)cc3c(S(=O)(=O)NCC(C)C)c2C1 [Example 100, 7-cyclopropyl-N-ethyl-9-(2-methylpropylsulfamoyl)-1,3-dihydropyrrolo[3,4-g]isoquinoline-2-carboxamide] | 100 to 2000 |
| CC(C)(F)CNS(=O)(=O)c1c2c(cc3cnc(C4CC4)cc13)CN(Cc1ccn[nH]1)C2 [Example 102, 7-cyclopropyl-N-(2-fluoro-2-methylpropyl)-2-(1H-pyrazol-5-ylmethyl)-1,3-dihydropyrrolo[3,4-g]isoquinoline-9-sulfonamide] | 100 to 2000 |
| CC(C)CNS(=O)(=O)c1c2c(cc3cnc(C4CC4)cc13)CC(Nc1ccnnc1)C2 (centres unmarked) [Example 103, 3-cyclopropyl-N-isobutyl-7-(pyridazin-4-ylamino)-7,8-dihydro-6H-cyclopenta[g]isoquinoline-5-sulfonamide; formic acid] | 10 to 50 |
| Cn1nccc1C(=O)NC1Cc2cc3cnc(C4CC4)cc3c(S(=O)(=O)NCC(C)(C)F)c2C1 (centres unmarked) [Example 104, N-[3-cyclopropyl-5-[(2-fluoro-2-methylpropyl)sulfamoyl]-7,8-dihydro-6H-cyclopenta[g]isoquinolin-7-yl]-2-methylpyrazole-3-carboxamide] | 50 to 100 |
| CC(C)(F)CNS(=O)(=O)c1c2c(cc3cnc(C4CC4)cc13)C[C@@H](Nc1cncc3nn(CCO)cc13)C2 [Example 106, (7R)-3-cyclopropyl-N-(2-fluoro-2-methylpropyl)-7-[[2-(2-hydroxyethyl)pyrazolo[3,4-c]pyridin-4-yl]amino]-7,8-dihydro-6H-cyclopenta[g]isoquinoline-5-sulfonamide] | 10 to 50 |
| CC(C)(F)CNS(=O)(=O)c1c2c(cc3cnc(C4CC4)cc13)CC1CC21 (centres unmarked) [Example 107, 13-cyclopropyl-N-(2-fluoro-2-methylpropyl)-12-azatetracyclo[8.4.0.03,8.04,6]tetradeca-1 (10),2,8,11,13-pentaene-2-sulfonamide] | 100 to 2000 |
| Cn1ccc(-c2ccc(N[C@@H]3Cc4cc5cnc(C6CC6)cc5c(S(=O)(=O)NCC(C)(C)F)c4C3)cn2)n1 [Example 108, (7R)-3-cyclopropyl-N-(2-fluoro-2-methylpropyl)-7-[[6-(1-methylpyrazol-3-yl)pyridin-3-yl]amino]-7,8-dihydro-6H-cyclopenta[g]isoquinoline-5-sulfonamide] | 10 to 50 |
| CC(C)(F)CNS(=O)(=O)c1c2c(cc3cnc(C4CC4)cc13)CC(Nc1cncc3nccn13)C2 (centres unmarked) [Example 109, 3-cyclopropyl-N-(2-fluoro-2-methylpropyl)-7-(imidazo[1,2-a]pyrazin-5-ylamino)-7,8-dihydro-6H-cyclopenta[g]isoquinoline-5-sulfonamide] | 10 to 50 |
| CC(C)(F)CNS(=O)(=O)c1c2c(cc3cnc(C4CC4)cc13)CC(c1cccnc1)C2 (centres unmarked) [Example 110, 3-cyclopropyl-N-(2-fluoro-2-methylpropyl)-7-pyridin-3-yl-7,8-dihydro-6H-cyclopenta[g]isoquinoline-5-sulfonamide] | 100 to 2000 |
| O=c1cc(C2Cc3cc4cnc(C5CC5)cc4c(S(=O)(=O)NC4CC(F)(F)C4)c3C2)[nH]n1-c1cccnc1 (centres unmarked) [Example 111, 3-cyclopropyl-N-(3,3-difluorocyclobutyl)-7-(3-oxo-2-pyridin-3-yl-1H-pyrazol-5-yl)-7,8-dihydro-6H-cyclopenta[g]isoquinoline-5-sulfonamide] | 100 to 2000 |
| Cn1nc(O)cc1NC1Cc2cc3cnc(C4CC4)cc3c(S(=O)(=O)NCC(C)(C)F)c2C1 (centres unmarked) [Example 112, 3-cyclopropyl-N-(2-fluoro-2-methylpropyl)-7-[(5-hydroxy-2-methylpyrazol-3-yl)amino]-7,8-dihydro-6H-cyclopenta[g]isoquinoline-5-sulfonamide] | 100 to 2000 |
| CC(C)(C)CNC(=O)C1Cc2cc3nnc(C4CC4)cc3c(S(=O)(=O)NCC(C)(C)F)c2C1 (centres unmarked) [Example 113, 3-cyclopropyl-N-(2,2-dimethylpropyl)-5-[(2-fluoro-2-methylpropyl)sulfamoyl]-7,8-dihydro-6H-cyclopenta[g]cinnoline-7-carboxamide] | 100 to 2000 |
| CC(=O)c1ccc(N[C@@H]2Cc3cc4cnc(C5CC5)cc4c(S(=O)(=O)NCC(C)(C)F)c3C2)cc1 [Example 114, (7R)-7-(4-acetylanilino)-3-cyclopropyl-N-(2-fluoro-2-methylpropyl)-7,8-dihydro-6H-cyclopenta[g]isoquinoline-5-sulfonamide] | 50 to 100 |
| CC(C)(F)CNS(=O)(=O)c1c2c(cc3cnc(C4CC4)cc13)C[C@@H](Nc1ccc(C(F)F)nc1)C2 [Example 118, (7R)-3-cyclopropyl-7-[[6-(difluoromethyl)pyridin-3-yl]amino]-N-(2-fluoro-2-methylpropyl)-7,8-dihydro-6H-cyclopenta[g]isoquinoline-5-sulfonamide] | 10 to 50 |
